Assay results published in US9371319B2, “Pyrrolopyridineamino derivatives as MPS1 inhibitors” (priority 2011, dated 2016).

Each molecule was assayed against T1, full length MPS1 (Homo sapiens, UniProt P33981) (assay: biochemical).
T1 sequence (P33981 1-857): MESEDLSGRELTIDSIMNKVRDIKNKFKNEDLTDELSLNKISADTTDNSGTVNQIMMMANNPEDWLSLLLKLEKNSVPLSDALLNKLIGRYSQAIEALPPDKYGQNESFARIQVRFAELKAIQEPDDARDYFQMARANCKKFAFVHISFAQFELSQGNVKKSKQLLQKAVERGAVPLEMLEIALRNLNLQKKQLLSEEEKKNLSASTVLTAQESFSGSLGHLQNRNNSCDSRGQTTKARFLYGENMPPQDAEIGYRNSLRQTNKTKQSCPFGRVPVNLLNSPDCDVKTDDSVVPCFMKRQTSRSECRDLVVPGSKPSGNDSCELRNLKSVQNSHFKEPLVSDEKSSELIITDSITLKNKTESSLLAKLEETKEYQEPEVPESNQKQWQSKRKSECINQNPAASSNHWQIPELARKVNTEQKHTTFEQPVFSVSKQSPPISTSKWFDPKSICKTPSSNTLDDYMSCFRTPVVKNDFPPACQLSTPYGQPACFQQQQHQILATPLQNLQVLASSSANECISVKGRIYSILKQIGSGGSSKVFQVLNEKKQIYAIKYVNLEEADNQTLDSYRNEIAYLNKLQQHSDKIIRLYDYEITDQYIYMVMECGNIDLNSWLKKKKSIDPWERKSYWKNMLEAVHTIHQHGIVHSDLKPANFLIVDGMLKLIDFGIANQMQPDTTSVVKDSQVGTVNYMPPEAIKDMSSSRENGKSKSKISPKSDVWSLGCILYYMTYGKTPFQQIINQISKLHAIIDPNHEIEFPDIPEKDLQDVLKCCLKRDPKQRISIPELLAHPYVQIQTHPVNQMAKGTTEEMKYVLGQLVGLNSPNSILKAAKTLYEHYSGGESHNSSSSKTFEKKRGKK

Point of comparison: `COC(=O)n1c(-c2cnn(C)c2)cc2cnc(Nc3ccc(-c4cnc(C)n4C)cc3Cl)cc21` [Example 86], IC50 7 nM. Against it:
- COc1ccc(Nc2cc3[nH]c(-c4cn[nH]c4)cc3cn2)c(OC)c1 [Example 160, N-(2,4-Dimethoxyphenyl)-2-(1H-pyrazol-4-yl)-1H-pyrrolo[3,2-c]pyridin-6-amine] — 2.7-fold higher, 19 nM
- CC(=O)N1CCN(c2ccc(Nc3cc4[nH]c(-c5cn[nH]c5)cc4cn3)cc2)CC1 [Example 169, 1-(4-(4-(2-(1H-Pyrazol-4-yl)-1H-pyrrolo[3,2-c]pyridin-6-ylamino)phenyl)piperazin-1-yl)ethanone] — 11-fold higher, 80 nM
- Cc1nc(C)c(-c2ccc(Nc3cc4c(cn3)cc(-c3cnn(C)c3)n4C(=O)OC(C)(C)C)c(Cl)c2)s1 [Example 45] — 7.4-fold higher, 52 nM
- Cn1cc(-c2cc3cnc(Nc4ccc(-c5cncn5C)cc4Cl)cc3n2C(=O)OC2CCCC2)cn1 [Example 78] — 1.6-fold higher, 11 nM
- COc1cc(C(F)(F)F)ccc1Nc1cc2[nH]c(-c3cnn(C)c3)cc2cn1 [Example 156, N-(2-Methoxy-4-(trifluoromethyl)phenyl)-2-(1-methyl-1H-pyrazol-4-yl)-1H-pyrrolo[3,2-c]pyridin-6-amine] — 23-fold higher, 164 nM
- COc1cc(OC2CCN(C)CC2)ccc1Nc1cc2[nH]c(-c3cn[nH]c3)cc2cn1 [Example 166, N-(2-Methoxy-4-(1-methylpiperidin-4-yloxy)phenyl)-2-(1H-pyrazol-4-yl)-1H-pyrrolo[3,2-c]pyridin-6-amine] — the same, 7 nM
- N#Cc1ccc(Nc2cc3[nH]c(-c4cn[nH]c4)cc3cn2)cc1 [Example 177, 4-(2-(1H-pyrazol-4-yl)-1H-pyrrolo[3,2-c]pyridin-6-ylamino) benzonitrile] — 21-fold higher, 150 nM
- COc1cc(C(=O)N2CC(OC)C2)ccc1Nc1cc2c(cn1)cc(-c1cnco1)n2C(=O)OC(C)(C)C [Example 97] — within 1.5-fold, 10 nM
- CN(C)C(=O)c1ccc(Nc2cc3[nH]c(-c4cnco4)c(Cl)c3cn2)c(Cl)c1 [Example 178, 3-Chloro-4-(3-chloro-2-(oxazol-5-yl)-1H-pyrrolo[3,2-c]pyridin-6-ylamino)-N,N-dimethylbenzamide] — 2.3-fold lower, 3 nM
- Cn1cc(-c2cc3cnc(Nc4ccc(-c5ccn(C)n5)cc4Cl)cc3[nH]2)cn1 [Example 124, N-(2-Chloro-4-(1-methyl-1H-pyrazol-3-yl)phenyl)-2-(1-methyl-1H-pyrazol-4-yl)-1H-pyrrolo[3,2-c]pyridin-6-amine] — 7.4-fold higher, 52 nM
- Cc1ncc(-c2ccc(Nc3cc4[nH]c(-c5cnco5)cc4cn3)c(Cl)c2)n1C [Example 186, N-(2-Chloro-4-(1,2-dimethyl-1H-imidazol-5-yl)phenyl)-2-(oxazol-5-yl)-1H-pyrrolo[3,2-c]pyridin-6-amine] — 7-fold lower, 1 nM
- COc1cc(CN(C)C)ccc1Nc1cc2[nH]c(-c3cnn(C)c3)cc2cn1 [Example 139, N-(4-((dimethylamino)methyl)-2-methoxyphenyl)-2-(1-methyl-1H-pyrazol-4-yl)-1H-pyrrolo[3,2-c]pyridin-6-amine] — 7.9-fold higher, 55 nM
- CN(C)C(=O)c1ccc(Nc2cc3c(cn2)cc(-c2cnn(C)c2)n3C(=O)OC2CCCC2)c(Cl)c1 [Example 72] — 2.3-fold lower, 3 nM
- COc1ccc(-c2ccc(Nc3cc4c(cn3)cc(-c3cnn(C)c3)n4C(=O)OC(C)(C)C)c(Cl)c2)cn1 [Example 48] — 2.3-fold higher, 16 nM
- Cn1cc(-c2cc3cnc(Nc4ccc(OC(F)F)cc4Cl)cc3[nH]2)cn1 [Example 132, N-(2-Chloro-4-(difluoromethoxy)phenyl)-2-(1-methyl-1H-pyrazol-4-yl)-1H-pyrrolo[3,2-c]pyridin-6-amine] — 41-fold higher, 288 nM
- c1cc(Nc2cc3[nH]c(-c4cn[nH]c4)cc3cn2)ccc1CN1CCOCC1 [Example 171, N-(4-(Morpholinomethyl)phenyl)-2-(1H-pyrazol-4-yl)-1H-pyrrolo[3,2-c]pyridin-6-amine] — within 1.5-fold, 9 nM
- CN(C)C(=O)c1ccc(Nc2cc3c(cn2)c(Cl)c(-c2cnn(C)c2)n3CC2CCCC2)c(Cl)c1 [Example 191, 3-Chloro-4-(3-chloro-1-(cyclopentylmethyl)-2-(1-methyl-1H-pyrazol-4-yl)-1H-pyrrolo[3,2-c]pyridin-6-ylamino)-N,N-dimethylbenzamide] — 14-fold higher, 97 nM
- Cn1cc(-c2cc3cnc(Nc4ccc(-c5ccnn5C)cc4Cl)cc3[nH]2)cn1 [Example 149, N-(2-Chloro-4-(1-methyl-1H-pyrazol-5-yl)phenyl)-2-(1-methyl-1H-pyrazol-4-yl)-1H-pyrrolo[3,2-c]pyridin-6-amine] — 3.1-fold higher, 22 nM
